In PubChem BioAssay (NCI) one finds TGI data, which are given here for 16 molecules.

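Test compounds were applied to cells in 96-well plates for 48 hours at 5 doses. TGI: concentration producing complete growth inhibition.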

One assay concerns TK-10 renal. Put plainly: NCI anticancer screen, dose series, 48 h.
For `COc1cc(Br)c(OC)c2c(OC)cc(C)cc12`, the TGI was more than 100 µM.
Still for that read-out and setting: then `CCOC(=O)/C(N=Nc1ccc(-n2c(C)nc3ccccc3c2=O)cc1)=C(/C)O`, with more than 100 µM; and `CCc1nnc(CC)n1NCCCC(=O)O`, with more than 100 µM; and `COc1ccc(OC)c2sc(N3C(=O)/C(=C/Cc4ccco4)N=C3c3ccccc3)nc12`, with more than 100 µM.
Still for that read-out and setting: then `CC(C)c1ccccc1SC1CC(=O)CC(Sc2ccccc2C(C)C)C12O[C@H](c1ccccc1)[C@@H](c1ccccc1)O2` (stereo partly drawn), with more than 100 µM; and `CSC1=N[C@H](c2ccccc2)CS1`, with more than 100 µM.

The next assay concerns OVCAR-5 ovarian. Put plainly: NCI anticancer screen, dose series, 48 h.
`Nc1ccn(C2CC(O)C(COP(O)(=S)OC3CC(n4ccc(N)nc4=O)OC3CO)O2)c(=O)n1` (stereo not drawn) came in with a TGI of more than 100 µM.
On the same count and under the same terms, to `COC(=O)N1C[C@@]2(C=CC3(CC2)OCCO3)c2ccccc21` belongs more than 100 µM; to `COc1ccccc1C1CC(=O)CC(c2ccccc2OC)C12C(=O)NC(=S)NC2=O` (stereo not drawn), more than 100 µM; to `COc1cc(S(=O)(=O)Nc2ccc(-c3csc(N4C(=O)CSC4c4cccs4)n3)cc2)ccc1Cl` (stereo not drawn), more than 100 µM.
On the same count and under the same terms, to `NCCCCNCCCN1CC1` belongs more than 82.9 µM; to `O=c1n(/N=C/c2ccccc2)c(=O)n2n1C1C=CC2CC1`, more than 100 µM; to `COc1ccc(C2c3cc4c(cc3C(O)C3CCC(=O)N23)OCO4)cc1` (stereo not drawn), more than 100 µM.
On the same count and under the same terms, to `COc1cc2c(cc1OC)-c1[nH]c3ccc(C#N)cc3c1CC(=O)N2` belongs more than 24.7 µM.
As to `NCCCNCCCNCCCN`, the TGI was more than 100 µM.
Still for that read-out and setting: to `Cn1nc(Cc2ccc(Cl)cc2)n(N)c1=O` belongs more than 100 µM.
On the same count and under the same terms, to `COc1cc(Br)c(OC)c2c(OC)cc(C)cc12` belongs more than 100 µM; to `CCOC(=O)/C(N=Nc1ccc(-n2c(C)nc3ccccc3c2=O)cc1)=C(/C)O`, more than 100 µM; to `CCc1nnc(CC)n1NCCCC(=O)O`, more than 100 µM.
Molecule `COc1ccc(OC)c2sc(N3C(=O)/C(=C/Cc4ccco4)N=C3c3ccccc3)nc12` returned a TGI of more than 100 µM.
`CC(C)c1ccccc1SC1CC(=O)CC(Sc2ccccc2C(C)C)C12O[C@H](c1ccccc1)[C@@H](c1ccccc1)O2` (stereo partly drawn): the TGI is more than 100 µM.
On the same count and under the same terms, to `CSC1=N[C@H](c2ccccc2)CS1` belongs more than 100 µM.

The subject of another assay is NCI-H522 lung. The experiment in a line: NCI anticancer screen, dose series, 48 h.
For the molecule `Nc1ccn(C2CC(O)C(COP(O)(=S)OC3CC(n4ccc(N)nc4=O)OC3CO)O2)c(=O)n1` (stereo not drawn), the TGI was more than 100 µM.
Same read-out and setting: to `COc1ccccc1C1CC(=O)CC(c2ccccc2OC)C12C(=O)NC(=S)NC2=O` (stereo not drawn) belongs more than 100 µM.
The molecule `COc1cc(S(=O)(=O)Nc2ccc(-c3csc(N4C(=O)CSC4c4cccs4)n3)cc2)ccc1Cl` (stereo not drawn) came in with a TGI of 33.9 µM.
Still for that read-out and setting: then `NCCCCNCCCN1CC1`, with 19.9 µM; and `COc1ccc(C2c3cc4c(cc3C(O)C3CCC(=O)N23)OCO4)cc1` (stereo not drawn), with more than 100 µM.
In turn, `COc1cc2c(cc1OC)-c1[nH]c3ccc(C#N)cc3c1CC(=O)N2` gave a TGI of more than 100 µM.
Same read-out and setting: to `NCCCNCCCNCCCN` belongs more than 100 µM.
`COc1cc(Br)c(OC)c2c(OC)cc(C)cc12` showed a TGI of more than 100 µM.
`CCc1nnc(CC)n1NCCCC(=O)O`: the TGI was more than 100 µM.

Another assay concerns RXF 393 renal. The experiment in a line: NCI anticancer screen, dose series, 48 h.
Regarding `COc1ccccc1C1CC(=O)CC(c2ccccc2OC)C12C(=O)NC(=S)NC2=O` (stereo not drawn), the TGI was more than 100 µM.
The same measure, in the same setting: to `COc1cc(S(=O)(=O)Nc2ccc(-c3csc(N4C(=O)CSC4c4cccs4)n3)cc2)ccc1Cl` (stereo not drawn) belongs 25.5 µM; to `NCCCCNCCCN1CC1`, 1.05 µM; to `NCCCNCCCNCCCN`, more than 100 µM.
The molecule `Cn1nc(Cc2ccc(Cl)cc2)n(N)c1=O` registered a TGI of more than 100 µM.
The same measure, in the same setting: then `COc1cc(Br)c(OC)c2c(OC)cc(C)cc12`, with more than 100 µM; and `CCc1nnc(CC)n1NCCCC(=O)O`, with more than 100 µM.
The same measure, in the same setting: then `CC(C)c1ccccc1SC1CC(=O)CC(Sc2ccccc2C(C)C)C12O[C@H](c1ccccc1)[C@@H](c1ccccc1)O2` (stereo partly drawn), with 42 µM.

The test system of another assay is MDA-MB-231 breast. Put plainly: NCI anticancer screen, dose series, 48 h.
Turning to `Nc1ccn(C2CC(O)C(COP(O)(=S)OC3CC(n4ccc(N)nc4=O)OC3CO)O2)c(=O)n1` (stereo not drawn), the TGI was more than 100 µM.
With `COC(=O)N1C[C@@]2(C=CC3(CC2)OCCO3)c2ccccc21`, the TGI was more than 100 µM.
Still for that read-out and setting: then `COc1ccccc1C1CC(=O)CC(c2ccccc2OC)C12C(=O)NC(=S)NC2=O` (stereo not drawn), with more than 100 µM; and `O=c1n(/N=C/c2ccccc2)c(=O)n2n1C1C=CC2CC1`, with more than 100 µM; and `COc1cc2c(cc1OC)-c1[nH]c3ccc(C#N)cc3c1CC(=O)N2`, with more than 100 µM.
With `NCCCNCCCNCCCN`, the TGI is more than 100 µM.
On the same count and under the same terms, then `Cn1nc(Cc2ccc(Cl)cc2)n(N)c1=O`, with more than 100 µM; and `COc1cc(Br)c(OC)c2c(OC)cc(C)cc12`, with more than 100 µM.
The same measure, in the same setting: to `CCOC(=O)/C(N=Nc1ccc(-n2c(C)nc3ccccc3c2=O)cc1)=C(/C)O` belongs more than 100 µM; to `CCc1nnc(CC)n1NCCCC(=O)O`, more than 100 µM; to `COc1ccc(OC)c2sc(N3C(=O)/C(=C/Cc4ccco4)N=C3c3ccccc3)nc12`, more than 100 µM.
Still for that read-out and setting: to `CC(C)c1ccccc1SC1CC(=O)CC(Sc2ccccc2C(C)C)C12O[C@H](c1ccccc1)[C@@H](c1ccccc1)O2` (stereo partly drawn) belongs 71.8 µM.

Another assay has as its system OVCAR-8 ovarian. Put plainly: NCI anticancer screen, dose series, 48 h.
Molecule `Nc1ccn(C2CC(O)C(COP(O)(=S)OC3CC(n4ccc(N)nc4=O)OC3CO)O2)c(=O)n1` (stereo not drawn) had a TGI of more than 100 µM.
Same read-out and setting: then `COC(=O)N1C[C@@]2(C=CC3(CC2)OCCO3)c2ccccc21`, with more than 100 µM.
Same read-out and setting: to `COc1ccccc1C1CC(=O)CC(c2ccccc2OC)C12C(=O)NC(=S)NC2=O` (stereo not drawn) belongs more than 100 µM; to `COc1cc(S(=O)(=O)Nc2ccc(-c3csc(N4C(=O)CSC4c4cccs4)n3)cc2)ccc1Cl` (stereo not drawn), more than 100 µM; to `O=c1n(/N=C/c2ccccc2)c(=O)n2n1C1C=CC2CC1`, more than 100 µM.
On to `COc1ccc(C2c3cc4c(cc3C(O)C3CCC(=O)N23)OCO4)cc1` (stereo not drawn), for which the TGI was more than 100 µM.
On the same count and under the same terms, to `COc1cc2c(cc1OC)-c1[nH]c3ccc(C#N)cc3c1CC(=O)N2` belongs more than 100 µM; to `NCCCNCCCNCCCN`, more than 100 µM; to `Cn1nc(Cc2ccc(Cl)cc2)n(N)c1=O`, more than 100 µM.
Same read-out and setting: to `COc1cc(Br)c(OC)c2c(OC)cc(C)cc12` belongs more than 100 µM; to `CCOC(=O)/C(N=Nc1ccc(-n2c(C)nc3ccccc3c2=O)cc1)=C(/C)O`, 50.5 µM; to `CCc1nnc(CC)n1NCCCC(=O)O`, more than 100 µM.
On the same count and under the same terms, then `COc1ccc(OC)c2sc(N3C(=O)/C(=C/Cc4ccco4)N=C3c3ccccc3)nc12`, with more than 100 µM; and `CC(C)c1ccccc1SC1CC(=O)CC(Sc2ccccc2C(C)C)C12O[C@H](c1ccccc1)[C@@H](c1ccccc1)O2` (stereo partly drawn), with more than 100 µM.

The subject of the next assay is NCI-H226 lung. The experiment in a line: NCI anticancer screen, dose series, 48 h.
`COc1ccccc1C1CC(=O)CC(c2ccccc2OC)C12C(=O)NC(=S)NC2=O` (stereo not drawn) returned a TGI of more than 100 µM.
Molecule `COc1cc(S(=O)(=O)Nc2ccc(-c3csc(N4C(=O)CSC4c4cccs4)n3)cc2)ccc1Cl` (stereo not drawn) came in with a TGI of 81.8 µM.
`NCCCCNCCCN1CC1` registered a TGI of more than 31.4 µM.
